# Test results published in patent publication US9078890B2, “Use of koumine and its homologues in preparation of medicament for treatment of autoimmune diseases of involved bones and joints” (priority 2011, dated 2015).
# Marks after values point to notes of the source that are not given here.
# Experiments:
# [1] = test system: adjuvant arthritis mice; assay: Adjuvant arthritis mice: hyperalgesia (phlogogenic paw thermal withdrawal latency); format: in vivo, Kunming mice
# Experimental: (§1) BCG was inactivated in water bath at 80° C., and fully emulsified along with complete Freund's adjuvant to form complete Freund's adjuvant emulsion containing 5 mg/ml BCG, preserved at 4° C., and shake well before use. The Kunming mice were divided into a modeling group and a false modeling group. According to the method recited in the literature [Rasool M, Sabina E P, Lavanya B. Anti-inflammatory effect of Spirulina fusiformis on adjuvant-induced arthritis in mice. Biol Pharm Bull. 2006, 29(12):2483-7], for the modeling group, the model was prepared by intradermal injection of 20 ul the emulsion under the plantar surface of right paws after the mice was narcotized; for the false modeling group, the emulsion was replaced with physiological saline. For the modeling group, the animals were screened on Day 8 after injection: the mice with the injected paw thickness increased >0.5 mm and thermal hyperalgesia occurred (paw thermal withdrawal latency <8 second) were selected as experimental subjects. The selected mice were divided into 5 groups randomly: low, middle, high dose treatment group (0.8, 4, 20 mg/kg); indomethacin positive control group (10 mg/kg); negative control group (physiological saline), each comprising 12 animals. Day 8 after inflammation, intragastric administration was carried out on each group to give corresponding intervention, one time per day for 10 days continuously.
# 30 min after intragastric administration, the phlogogenic paw thermal withdrawal latency of the mice in each group was determined by photo-thermal dolorimeter to reflect animals' hyperalgesia status.
# [2] = test system: adjuvant arthritis mice; assay: Adjuvant arthritis mice: condition and body weight; format: in vivo, Kunming mice
# Experimental: as §1, with “Day 8 after inflammation, intragastric administration was carried out on each group to give corresponding intervention, one time per day for 10 days continuously.” left out
# [3] = test system: type II collagen-induced arthritis rat; assay: Type II collagen-induced arthritis rat: condition and body weight; format: in vivo, Wistar rat; conditions: for Body weight before intervention: from Day 21 after modeling for 10 days
# Experimental: (§2) Under aseptic conditions, 10 mg chicken type II collagen protein was fully mixed with 5 ml 10 mM glacial acetic acid solution, and stirred overnight in refrigerator at 4° C. to fully dissolve it. It was mixed with complete Freund's adjuvant in equal volume in ice bath to fully emulsify into an emulsion with a collagen concentration of 1 mg/ml.
# (§3) Wistar rats are divided into a modeling group and a false modeling group. After the modeling group rats were narcotized with intraperitoneal injection of pentobarbital, the above emulsion was injected intracutaneously at 3 to 4 positions at back, tail root or the like, 0.3 ml for each, an primary immunity was carried out. After 7 days, a secondary immunity was carried out, the emulsifying agent complete Freund's adjuvant of initial immunity was replaced with incomplete Freund's adjuvant, 0.1 ml the emulsion was injected under sevoflurane inhalation anesthesia wherein the injection position is different from the last time. In false modeling group, the emulsion was replaced with solvent glacial acetic acid solution.
# (§4) Successfully modeled rat in the modeling group were randomly divide into 5 groups: low, middle, high-dose koumine treatment group, positive control group, negative control group, 10 rats for each group. Beginning from Day 21 after modeling, corresponding intervention was carried out as following in 10 days continuously: 0.6, 3, 15 mg/kg koumine were intragastrically administrated to the low, middle, high-dose koumine treatment group respectively, 1 time every day; 1 mg/kg amethopterin was administrated to the positive control group, 1 time every 3 days, equal volume of physiological saline was administrated for the remained days; equal volume of physiological saline was administrated to the negative control group.
# [4] = test system: type II collagen-induced arthritis rat; assay: Type II collagen-induced arthritis rat: thermal hyperalgesia (thermal withdrawal latency); format: in vivo, Wistar rat; conditions: for Thermal stimulus withdrawal latency, Intervention Day 2: intervention Day 2, 1 hour after administration; for Thermal stimulus withdrawal latency, Intervention Day 4: intervention Day 4, 1 hour after administration; for Thermal stimulus withdrawal latency, Intervention Day 6: intervention Day 6, 1 hour after administration; for Thermal stimulus withdrawal latency, Intervention Day 8: intervention Day 8, 1 hour after administration; for Thermal stimulus withdrawal latency, Intervention Day 10: intervention Day 10, 1 hour after administration
# Experimental: as §2, §3, §4
# 1 hour after intragastric administration, the thermal withdrawal latency of each group was determined by the photo-thermal dolorimeter; the mechanical pain threshold of rats of each group was determined by Von-frey electromechanical pain threshold detector, thus the condition of thermal hyperalgesia and mechanical hyperalgesia of rats of each group was observed.
# [5] = koumine 0.8 mg/kg intragastric once daily from Day 8
# [6] = koumine 4 mg/kg intragastric once daily from Day 8
# [7] = koumine 20 mg/kg intragastric once daily from Day 8
# [8] = koumine 0.6 mg/kg intragastric once daily from Day 21
# [9] = koumine 0.6 mg/kg intragastric once daily
# [10] = koumine 3 mg/kg intragastric once daily from Day 21
# [11] = koumine 3 mg/kg intragastric once daily
# [12] = koumine 15 mg/kg intragastric once daily from Day 21
# [13] = koumine 15 mg/kg intragastric once daily
compound,measurement,setting,value
C=CC12CN(C)C3CC14C(=Nc1ccccc14)C1CC2C3CO1 (stereo not drawn) [Koumine],"Thermal stimulus withdrawal latency, Before intervention",[1]; koumine 0.8 mg/kg intragastric once daily for 10 days from Day 8 after inflammation,14.1 ± 1.1 s
same,"Thermal stimulus withdrawal latency, Intervention Day 4",[1]; [5],5.9 ± 1.3^★★ second
same,"Thermal stimulus withdrawal latency, Intervention Day 8",[1]; [5],4.9 ± 1.1^★★ second
same,"Thermal stimulus withdrawal latency, Intervention Day 12",[1]; [5],4.9 ± 1.0*^★ second
same,"Thermal stimulus withdrawal latency, Intervention Day 16",[1]; [5],5.9 ± 1.0**^★ second
same,"Thermal stimulus withdrawal latency, Intervention Day 18",[1]; [5],6.1 ± 1.2**^★★ second
same,"Thermal stimulus withdrawal latency, Before intervention",[1]; koumine 4 mg/kg intragastric once daily for 10 days from Day 8 after inflammation,13.6 ± 1.1 s
same,"Thermal stimulus withdrawal latency, Intervention Day 4",[1]; [6],5.8 ± 1.5^★★ second
same,"Thermal stimulus withdrawal latency, Intervention Day 8",[1]; [6],4.3 ± 0.8 s
same,"Thermal stimulus withdrawal latency, Intervention Day 12",[1]; [6],6.7 ± 1.9**^★ second
same,"Thermal stimulus withdrawal latency, Intervention Day 16",[1]; [6],7.8 ± 1.9**^★ second
same,"Thermal stimulus withdrawal latency, Intervention Day 18",[1]; [6],8.4 ± 1.8**^★★ second
same,"Thermal stimulus withdrawal latency, Before intervention",[1]; koumine 20 mg/kg intragastric once daily for 10 days from Day 8 after inflammation,13.9 ± 1.1 s
same,"Thermal stimulus withdrawal latency, Intervention Day 4",[1]; [7],6.1 ± 1.4^★★ second
same,"Thermal stimulus withdrawal latency, Intervention Day 8",[1]; [7],4.7 ± 1.5^★★ second
same,"Thermal stimulus withdrawal latency, Intervention Day 12",[1]; [7],9.2 ± 1.2**^★ second
same,"Thermal stimulus withdrawal latency, Intervention Day 16",[1]; [7],10.7 ± 1.2**^★★ second
same,"Thermal stimulus withdrawal latency, Intervention Day 18",[1]; [7],10.8 ± 1.1**^★★ second
same,Effect on thermal stimulus withdrawal latency (summary of Table 1),"[1]; koumine 0.8, 4, 20 mg/kg intragastric, dose-effect and time-effect relationships",can significantly extend the thermal stimulus withdrawal latency
same,Effect on body weight of adjuvant arthritis mice (FIG. 1),"[2]; koumine 0.8, 4, 20 mg/kg intragastric once daily, Day 4-18 after inflammation",dose dependent antagonistic effect on body weight reducing
same,Food intake and activity after inflammation,"[2]; koumine treatment group 0.8, 4, 20 mg/kg intragastric, negative control decreased obviously",no obvious change was observed
same,"Body weight after intervention, Day 7",[3]; [8],154.6 ± 7.20 g
same,"Body weight after intervention, Day 14",[3]; [8],173.1 ± 7.93 g
same,"Body weight after intervention, Day 21",[3]; [8],194.1 ± 16.67 g
same,"Body weight after intervention, Day 31",[3]; [8],235.8 ± 5.00 g
same,Body weight before intervention,[3]; [9],129.9 ± 8.60 g
same,"Body weight after intervention, Day 7",[3]; [10],145.1 ± 9.24 g
same,"Body weight after intervention, Day 14",[3]; [10],173.7 ± 4.84 g
same,"Body weight after intervention, Day 21",[3]; [10],202.3 ± 9.57 g
same,"Body weight after intervention, Day 31",[3]; [10],240.2 ± 6.85 g
same,Body weight before intervention,[3]; [11],126.5 ± 7.92 g
same,"Body weight after intervention, Day 7",[3]; [12],148.7 ± 8.73 g
same,"Body weight after intervention, Day 14",[3]; [12],176.9 ± 3.86 g
same,"Body weight after intervention, Day 21",[3]; [12],205.1 ± 6.94 g
same,"Body weight after intervention, Day 31",[3]; [12],260.3 ± 11.79 g
same,Body weight before intervention,[3]; [13],127.8 ± 7.45 g
same,"Condition of rats (food intake, activity, fur, emaciation)","[3]; koumine 0.6, 3, 15 mg/kg intragastric once daily",can be improved in a dose dependent manner
same,Effect on body weight of type II collagen-induced arthritis rats (summary of Table 2),"[3]; koumine 0.6, 3, 15 mg/kg intragastric, robustness-promoting effect on high-dose group",antagonistic effect on body weight reducing
same,"Thermal stimulus withdrawal latency, Before intervention",[4]; [9],7.50 ± 1.34 s
same,"Thermal stimulus withdrawal latency, Intervention Day 2",[4]; [9],7.81 ± 1.39 s
same,"Thermal stimulus withdrawal latency, Intervention Day 4",[4]; [9],8.42 ± 1.24 s
same,"Thermal stimulus withdrawal latency, Intervention Day 6",[4]; [9],10.30 ± 0.73**^★ second
same,"Thermal stimulus withdrawal latency, Intervention Day 8",[4]; [9],8.96 ± 0.81 s
same,"Thermal stimulus withdrawal latency, Intervention Day 10",[4]; [9],8.62 ± 2.21 s
same,"Thermal stimulus withdrawal latency, Before intervention",[4]; [11],8.03 ± 1.98 s
same,"Thermal stimulus withdrawal latency, Intervention Day 2",[4]; [11],8.07 ± 1.86 s
same,"Thermal stimulus withdrawal latency, Intervention Day 4",[4]; [11],9.16 ± 1.18 s
same,"Thermal stimulus withdrawal latency, Intervention Day 6",[4]; [11],11.18 ± 2.03**^★ second
same,"Thermal stimulus withdrawal latency, Intervention Day 8",[4]; [11],10.40 ± 1.74 s
same,"Thermal stimulus withdrawal latency, Intervention Day 10",[4]; [11],11.62 ± 1.21**^★ second
same,"Thermal stimulus withdrawal latency, Before intervention",[4]; [13],7.68 ± 2.48 s
same,"Thermal stimulus withdrawal latency, Intervention Day 2",[4]; [13],9.41 ± 0.68 s
same,"Thermal stimulus withdrawal latency, Intervention Day 4",[4]; [13],10.82 ± 1.07 s
same,"Thermal stimulus withdrawal latency, Intervention Day 6",[4]; [13],12.98 ± 1.13**^★ second
same,"Thermal stimulus withdrawal latency, Intervention Day 8",[4]; [13],13.44 ± 1.72 s
same,"Thermal stimulus withdrawal latency, Intervention Day 10",[4]; [13],13.87 ± 1.26**^★ second
same,Effect on thermal stimulus withdrawal latency (summary of Table 3),"[4]; koumine 0.6, 3, 15 mg/kg intragastric, dose-effect relationship",can significantly extend the thermal stimulus withdrawal latency
